ChEMBL document CHEMBL3886166, “Heterocyclic compounds” (2015)

Columns and labels:
[1] = target: T1, Transient receptor potential cation channel subfamily V member 1 (Homo sapiens, UniProt Q8NER1); test: Capsaicin-Based Assay: Two days prior to performing this assay, cells are seeded in poly-D-lysine-coated 96-well clear-bottom black plates (50,000 cells/well) in growth media containing 5 uM PonA (commercially available from Invitrogen) to induce expression of TRPV1. On the day of the assay, the plates are washed with 0.2 mL 1x Hank's Balanced Salt Solution (commercially available from Life Technologies) containing 1 mM CaCl2 and 20 mM HEPES, pH 7.4, and cells are loaded using 0.1 mL of wash buffer containing Fluo-4 (3 uM final). After one hour, the cells are washed twice with 0.2 mL of wash buffer and resuspended in 0.1 mL of wash buffer. The plates are transferred to a FLIPR for assay. 50 uL of test compound diluted with assay buffer (1x Hank's Balanced Salt Solution containing 1 mM CaCl2 and 20 mM HEPES, pH 7.4) are added to the cell plates and incubated for 2 min. The final concentration of the compound is adjusted to range from about 50 picoM to about 3 uM.
[2] = target: T1, Transient receptor potential cation channel subfamily V member 1; test: pH-Based Assay: Two days prior to performing this assay, cells are seeded on poly-D-lysine-coated 96-well clear-bottom black plates (commercially available from Becton-Dickinson) at 75,000 cells/well in growth media containing 5 uM PonA (commercially available from Invitrogen) to induce expression of TRPV1. On the day of the assay, the plates are washed with 0.2 mL 1x Hank's Balanced Salt Solution (commercially available from Life Technologies) containing 1.6 mM CaCl2 and 20 mM HEPES, pH 7.4 (wash buffer), and loaded using 0.1 mL of wash buffer containing Fluo-4 (3 uM final concentration, commercially available from Molecular Probes). After 1 h, the cells are washed twice with 0.2 mL wash buffer and resuspended in 0.05 mL 1x Hank's Balanced Salt Solution (commercially available from Life Technologies) containing 3.5 mM CaCl2 and 10 mM Citrate, pH 7.4 (assay buffer). Plates are then transferred to a FLIPR for assay.

T1 sequence (Q8NER1 whole entry): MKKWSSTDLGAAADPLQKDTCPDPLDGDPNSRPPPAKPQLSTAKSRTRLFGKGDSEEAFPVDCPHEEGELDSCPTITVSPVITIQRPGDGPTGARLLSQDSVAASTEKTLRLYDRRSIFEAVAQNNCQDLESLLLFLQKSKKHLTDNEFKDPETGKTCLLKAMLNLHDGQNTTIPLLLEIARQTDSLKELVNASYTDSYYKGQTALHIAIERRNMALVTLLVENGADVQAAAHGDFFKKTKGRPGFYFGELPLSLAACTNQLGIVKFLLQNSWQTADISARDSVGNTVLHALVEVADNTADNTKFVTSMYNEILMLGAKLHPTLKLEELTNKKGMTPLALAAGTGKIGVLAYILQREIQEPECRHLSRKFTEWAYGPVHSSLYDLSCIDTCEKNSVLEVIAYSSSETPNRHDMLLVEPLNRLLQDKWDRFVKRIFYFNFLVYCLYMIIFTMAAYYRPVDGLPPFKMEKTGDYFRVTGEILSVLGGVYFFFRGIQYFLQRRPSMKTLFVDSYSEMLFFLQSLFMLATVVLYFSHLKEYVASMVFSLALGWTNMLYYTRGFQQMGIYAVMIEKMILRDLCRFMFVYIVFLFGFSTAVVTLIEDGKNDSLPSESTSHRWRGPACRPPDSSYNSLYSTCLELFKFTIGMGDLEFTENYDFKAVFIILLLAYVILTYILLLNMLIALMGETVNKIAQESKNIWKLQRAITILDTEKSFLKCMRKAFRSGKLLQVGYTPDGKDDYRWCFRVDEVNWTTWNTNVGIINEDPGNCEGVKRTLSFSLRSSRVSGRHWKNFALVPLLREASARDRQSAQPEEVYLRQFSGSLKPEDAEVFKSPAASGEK

Structure (SMILES)	IC50 [1] [µM]	IC50 [2] [µM]
O=C(Nc1ccc(C(F)(F)F)cn1)N1CC=C(c2ncc(-c3nc(CO)no3)cc2Cl)CC1	< 0.1	
O=C(Nc1ccc(C(F)(F)F)cn1)N1CCN(c2ncc(-c3nc(CO)no3)cc2Cl)CC1		< 0.1
Cc1cc(NC(=O)N2CCC(F)(c3ncc(-c4ocnc4CO)cc3Cl)CC2)ccc1C(F)(F)F	< 0.1	
Cc1cc(NC(=O)N2CC=C(c3ncc(-c4nnc(CCO)o4)cc3Cl)CC2)ccc1OC(F)(F)F		< 0.1
O=C(Nc1ccc(C(F)(F)F)c(Cl)c1)N1CC=C(c2ncc(-c3noc(CO)n3)cc2Cl)CC1	< 0.1	
Cc1noc(-c2cnc(C3=CCN(C(=O)Nc4ccc(OC(F)(F)F)cc4)CC3)c(Cl)c2)n1		< 0.1
O=C(Nc1ccc(C(F)(F)F)cn1)N1CC=C(c2ncc(-c3cnc(CO)o3)cc2Cl)CC1		< 0.1
Cc1cc(NC(=O)N2CC=C(c3ncc(-c4nnc(CCO)o4)cc3Cl)CC2)ccc1C(F)(F)F		< 0.1
Cc1cc(NC(=O)N2CCN(c3ncc(-c4nc(CO)no4)cc3Cl)CC2)ccc1C(F)(F)F		< 0.1
Cc1nnc(-c2cnc(C3=CCN(C(=O)Nc4ccc(OC(F)(F)F)cc4)CC3)c(Cl)c2)o1	< 0.1	
O=C(C#Cc1ccc(-c2nnc(CO)o2)cc1Cl)Nc1ccc(C(F)(F)F)c(Cl)c1	< 0.1	
O=C(Nc1ccc(C(F)(F)F)cc1)N1CC=C(c2ncc(-c3nnc(CO)o3)cc2Cl)CC1	< 0.1	
O=C(Nc1ccc(C(F)(F)F)c(Cl)c1)N1CCN(c2ncc(-c3nnc(CO)o3)cc2Cl)CC1		< 0.1
Cc1cc(NC(=O)N2CC=C(c3ncc(-c4nc(CO)no4)cc3Cl)CC2)ccc1C(F)(F)F		< 0.1
O=C(Nc1ccc(C(F)(F)F)c(Cl)c1)N1CC=C(c2ncc(-c3ocnc3CO)cc2Cl)CC1		< 0.1
O=C(Nc1ccc(C(F)(F)F)cn1)N1CC=C(c2ncc(-c3noc(CO)n3)cc2Cl)CC1	< 0.1	
Cc1cc(NC(=O)N2CCN(c3ncc(-c4nnc(CO)o4)cc3Cl)CC2)ccc1C(F)(F)F		< 0.1

Structure (SMILES)	IC50 [1] [µM]	IC50 [2] [µM]
O=C(C#Cc1ccc(-c2nnc(CO)o2)cc1Cl)Nc1ccc(C(F)(F)F)cc1	< 0.1	
O=C(Nc1ccc(C(F)(F)F)c(Cl)c1)N1CC=C(c2ncc(-c3nnc(CO)o3)cc2Cl)CC1	< 0.1	
O=C(Nc1ccc(C(F)(F)F)cn1)N1CCN(c2ncc(-c3nnc(CO)o3)cc2Cl)CC1	< 0.1	
Cc1nnc(-c2cnc(C3=CCN(C(=O)Nc4ccc(C(F)(F)F)cn4)CC3)c(Cl)c2)o1		< 0.1
O=C(Nc1ccc(C(F)(F)F)c(Cl)c1)N1CCC(F)(c2ncc(-c3nc(CO)no3)cc2Cl)CC1		< 0.1
Cc1noc(-c2cnc(C3=CCN(C(=O)Nc4ccc(C(F)(F)F)cc4)CC3)c(Cl)c2)n1		< 0.1
O=C(Nc1ccc(C(F)(F)F)cn1)N1CC=C(c2ncc(-c3nnc(CO)o3)cc2Cl)CC1	< 0.1	
Cc1cc(NC(=O)N2CC=C(c3ncc(-c4nc(CO)no4)cc3F)CC2)ccc1C(F)(F)F	< 0.1	
O=C(Nc1ccc(C(F)(F)F)c(Cl)c1)N1CC=C(c2ncc(-c3cc(CO)on3)cc2Cl)CC1		< 0.1
Cc1nnc(-c2cnc(C3=CCN(C(=O)Nc4ccc(C(F)(F)F)cc4)CC3)c(Cl)c2)o1	< 0.1	
O=C(Nc1ccc(C(F)(F)F)cn1)N1CC=C(c2ccc(-c3nnc(CO)o3)cc2Cl)CC1		< 0.1
O=C(Nc1ccc(C(F)(F)F)cn1)N1CC=C(c2ncc(-c3cc(CO)on3)cc2Cl)CC1		< 0.1
O=C(Nc1ccc(C(F)(F)F)cn1)N1CC=C(c2ncc(-c3nc(CO)no3)cc2F)CC1	< 0.1	
Cc1cc(NC(=O)N2CCC(F)(c3ncc(-c4nc(CO)no4)cc3Cl)CC2)ccc1C(F)(F)F		< 0.1
O=C(Nc1ccc(C(F)(F)F)c(Cl)c1)N1CCC(F)(c2ncc(-c3noc(CO)n3)cc2Cl)CC1		< 0.1
O=C(Nc1ccc(C(F)(F)F)cn1)N1CCC(F)(c2ncc(-c3noc(CO)n3)cc2Cl)CC1		< 0.1
